Patent publication US20080090847A1, “HETEROCYCLIC COMPOUNDS AND USES THEREOF AS D-ALANYL-D-ALANINE LIGASE INHIBITORS” (PLIVA D.D., priority 2001, published 2008)
pKi: −log10 of the molar value. Read-outs that look alike come from different tables or passages of the source.

What was measured:
Type in all cases: biochemical
[1] = molecular target: E. coli ligase (D-Ala-D-Ala ligase) (Escherichia coli, UniProt P07862); assay: D-Ala-D-Ala ligase Ki determination (PK/LDH coupled assay), E. coli ligase
Source text: (§1) Inhibition of D-Ala-D-Ala ligase can be assayed for using the pyruvate kinase/lactate dehydrogenase (PK/LDH) assay described in Example 2, and as described in the literature (e.g., in Sarthy et al., Anal. Biochem., 254:288-290, 1997). In the bacterial cell wall synthesis process, the ligase catalyzes the conversion of adenosine triphosphate (ATP) to adenosine diphosphate (ADP) concurrent with the ligation of two D-alanine residues to form D-alanyl-D-alanine. PK then regenerates ATP from the ADP thus created simultaneously with the conversion of phosphopyruvate to pyruvate. LDH catalyzes the reduction of pyruvate to lactate by converting NADH to NAD^+. By monitoring the production rate of NAD^+ (e.g., using UV/Vis spectroscopy), D-Ala-D-Ala ligase activity can be ascertained.
(§2) The protein sequence for the enzyme D-ala-D-ala ligase has been determined in a variety of different bacterial species using standard techniques in biochemistry (see Table 5). The protein sequence from any species can be overexpressed in an appropriate host organism such as E. coli using standard molecular biology techniques. The ligase enzyme can be harvested, purified, and used in the above described assay for the determination of inhibitory activity.
(§3) The synthetic analogs of Example 1 were dissolved in dimethylsulfoxide (DMSO) at a concentration of 100 mM on the day of screening, using a vortex mixer and sonication if necessary for dissolution. The solutions were kept at room temperature until screening was completed.
(§4) A 10 mM NADH (Sigma) stock solution was prepared freshly on the day of screening by dissolving 32 μmol NADH in 3.2 ml double-distilled water. The NADH solution was kept on ice. Stock solutions containing 50 mM phosphoenolpyruvate (PEP; Sigma), 500 μM HERMES, 30 mM adenosine triphosphate (ATP; Sigma), 200 mM D-alanine (Sigma), and 4× core buffer (i.e., 400 mM Hepes, 40 mM magnesium chloride, and 40 mM potassium chloride), were also stored on ice. A stock solution of pyruvate kinase/lactate dehydrogenase (PK/LDH) was also obtained from Sigma.
(§5) Table of Final concentrations are dependent on the type of screening:
(§6) For each set of test compounds, two 96-well plates were used: an inhibitor plate and an enzyme plate. The test compounds correspond to rows A-G of the plates. Adenosine (Sigma) dissolved in DMSO, used as a control, corresponds to row H of each plate.
(§7) The enzyme solution was allowed to equilibrate to 25° C.
(§8) Dilutions were prepared in the inhibitor plate as follows: 50 μl DMSO was added to each well of columns 1-11, rows A-G, of the inhibitor plate. 50 μl DMSO were added to each well of columns 1-11, row H. 100 μl of the 100 mM test solutions were added to column 12, rows A-G (i.e., the first compound in row A, the second compound in row B, and so on). 100 μl of a 100 mM Adenosine solution was added to column 12, row H.
(§9) 50 μl of the test solution was transferred from column 12 in each row to column 11 of the a same row, mixing the solution with the DMSO. 50 μl of solution was then transferred from column 11 in each row to column 10 in the same row, 50 μl from column 10 was transferred to column 9, and so on, down to column 2. No solution was transferred to column 1. Multichannel pipettors were used in making the serial dilution.
(§10) 120 μl of the enzyme solution was added to each well of the enzyme plate.
(§11) The substrate solutions were brought to 25° C.
(§12) The analogs and enzymes were then incubated at 25° C. Since the reactions were initiated in columns, the analog addition is also in columns. At t=0 minutes, 5 μl analog was transferred from each well of columns 1-4 of the inhibitor plate to the corresponding well of the enzyme plate. At t=4 minutes, 5 μl analog was transferred from each well of columns 5-8 of the inhibitor plate to the corresponding well of the enzyme plate. At t=8 minutes, 5 μl analog was transferred from each well of columns 9-12 of the inhibitor plate to the corresponding well of the enzyme plate. The inhibitor plate was then frozen. […]

[2] = molecular target: Staph ligase (D-Ala-D-Ala ligase) (Staphylococcus aureus, UniProt Q5HEB7); assay: D-Ala-D-Ala ligase Ki determination (PK/LDH coupled assay), Staph ligase; settings: for Ki: Ki/ATP, avg, read-out: Staph ligase Ki/ATP (uM) avg
Chain of Staph ligase (D-Ala-D-Ala ligase) (Q5HEB7 whole entry): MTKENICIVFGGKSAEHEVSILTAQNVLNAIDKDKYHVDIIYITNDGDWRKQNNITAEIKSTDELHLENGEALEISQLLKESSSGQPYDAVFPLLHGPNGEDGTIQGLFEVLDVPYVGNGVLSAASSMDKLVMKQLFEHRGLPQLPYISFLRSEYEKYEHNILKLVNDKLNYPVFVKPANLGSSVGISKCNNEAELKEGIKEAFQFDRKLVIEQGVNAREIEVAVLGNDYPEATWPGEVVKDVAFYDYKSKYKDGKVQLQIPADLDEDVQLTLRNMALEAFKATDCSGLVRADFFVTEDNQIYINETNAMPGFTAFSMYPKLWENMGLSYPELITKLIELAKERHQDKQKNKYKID
Source text: as §1, §2, §3, §4, §5, §6, §7, §8, §9, §10, §11, §12

[3] = molecular target: H. Influenzae ligase (D-Ala-D-Ala ligase) (Haemophilus influenzae, UniProt P44405); assay: D-Ala-D-Ala ligase Ki determination (PK/LDH coupled assay), H. influenzae ligase; settings: for Ki: Ki/ATP, avg, read-out: H. Influenzae ligase Ki/ATP (uM) avg
Chain of H. Influenzae ligase (D-Ala-D-Ala ligase) (P44405 whole entry): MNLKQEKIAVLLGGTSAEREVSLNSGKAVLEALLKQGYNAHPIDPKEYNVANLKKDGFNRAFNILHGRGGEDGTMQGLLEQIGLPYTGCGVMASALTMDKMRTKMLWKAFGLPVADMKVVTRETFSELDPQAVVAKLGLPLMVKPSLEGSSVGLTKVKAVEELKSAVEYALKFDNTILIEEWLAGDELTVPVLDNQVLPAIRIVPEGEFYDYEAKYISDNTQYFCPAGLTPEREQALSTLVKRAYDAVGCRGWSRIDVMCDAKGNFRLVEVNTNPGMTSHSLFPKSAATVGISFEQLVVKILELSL
Source text: as §1, §2, §3, §4, §5, §6, §7, §8, §9, §10, §11, §12

[4] = molecular target: T1, Strep ligase (D-Ala-D-Ala ligase) (Streptococcus pneumoniae serotype 4, UniProt P0CB57); assay: D-Ala-D-Ala ligase Ki determination (PK/LDH coupled assay), Strep ligase; settings: for Ki: Ki/ATP, avg, read-out: Strep ligase Ki/ATP (uM) avg
T1 sequence (P0CB57 1-347): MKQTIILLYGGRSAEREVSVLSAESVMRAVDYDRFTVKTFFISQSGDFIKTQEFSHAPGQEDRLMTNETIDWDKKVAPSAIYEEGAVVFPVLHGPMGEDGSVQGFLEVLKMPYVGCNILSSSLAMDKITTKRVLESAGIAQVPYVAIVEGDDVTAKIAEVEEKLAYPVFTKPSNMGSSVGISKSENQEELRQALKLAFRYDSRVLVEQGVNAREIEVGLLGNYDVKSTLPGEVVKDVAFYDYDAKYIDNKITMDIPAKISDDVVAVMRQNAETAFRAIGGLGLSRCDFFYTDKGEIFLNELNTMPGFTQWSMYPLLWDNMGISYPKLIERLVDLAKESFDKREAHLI
Source text: as §1, §2, §3, §4, §5, §6, §7, §8, §9, §10, §11, §12

[5] = Table 1, read-out: Ki (E. coli ligase)/μM
[6] = E. coli ligase Ki/ATP (uM) avg, Table 3, Ki/ATP, avg
[7] = E. coli ligase Ki/ATP (uM) avg, Table 4, Ki/ATP, avg
[8] = E. coli ligase Ki/ATP (uM) avg, Table 5, Ki/ATP, avg
[9] = Table 2, read-out: Staph ligase

CN(Cc1cnc2ccccc2c1)c1ncc2c(N)nc(N)nc2n1
Ki [1, 5]: 1 µM

CC(c1cccc2ccccc12)N(CC(O)C(=O)O)c1ncc2c(N)nc(N)nc2n1 (centres unmarked)
Ki [1, 5]: 0.5 µM

CCOc1ccc2ccccc2c1CN(CC(=O)O)c1ncc2c(N)nc(N)nc2n1
Ki [1, 5]: 8.7 µM

CCOc1ccc2ccccc2c1CN(CCC(=O)NCCN)c1ncc2c(N)nc(N)nc2n1
Ki for E. coli ligase (in words) [1]: less than one micromolar | Ki [1, 6]: 0.7 µM | S. aureus ligase activity (in words) [2]: single digit micromolar | Ki ([2]; Table 3): 4.7 µM | Ki for H. influenzae ligase (in words) [3]: less than one micromolar | Ki ([3]; Table 3): 1 µM | S. pneumoniae ligase activity (in words) [4]: single digit micromolar | Ki ([4]; Table 3): 1.9 µM

CCOc1ccc2ccccc2c1CN(CCC(=O)NCc1ccccn1)c1ncc2c(N)nc(N)nc2n1
Ki [1, 6]: 9.6 µM | Ki ([2]; Table 3): 9.5 µM | Ki ([3]; Table 3): 0.267 µM | Ki ([4]; Table 3): 3.1 µM

CCOc1ccc2ccccc2c1CN(CCC(=O)N1CCOCC1)c1ncc2c(N)nc(N)nc2n1
Ki [1, 6]: 1.9 µM | Ki ([2]; Table 3): 3.8 µM | Ki ([3]; Table 3): 1.3 µM | Ki ([4]; Table 3): 4.1 µM

CCOc1ccc2ccccc2c1CN(CCC(=O)O)c1ncc2c(N)nc(N)nc2n1
Ki [1, 7]: 5.3 µM | Ki ([2]; Table 4): 6.7 µM | Ki ([3]; Table 4): 3.7 µM | Ki ([4]; Table 4): 2.1 µM

C[C@@H](c1cccc2ccccc12)N(CCC(=O)O)c1ncc2c(N)nc(N)nc2n1
Ki [1, 7]: 4.2 µM | Ki ([2]; Table 4): 10 µM | Ki ([3]; Table 4): 5.7 µM | Ki ([4]; Table 4): 14.6 µM

C[C@@H](c1cccc2ccccc12)N(CC(O)C(=O)O)c1ncc2c(N)nc(N)nc2n1 (some centres unmarked)
Ki [1, 7]: 1.4 µM | Ki ([2]; Table 4): 4.3 µM | Ki ([3]; Table 4): 3.5 µM | Ki ([4]; Table 4): 4.3 µM

CCOc1ccc2ccccc2c1CN(CC(O)C(=O)O)c1ncc2c(N)nc(N)nc2n1 (centres unmarked)
pKi ([1]; E. coli ligase potency): 6.84 | pKi ([2]; read-out: activity against Staph (ligase)): 5.39 | pKi ([3]; read-out: activity against H. influenzae (ligase)): 6.25 | pKi ([4]; read-out: activity against Strep (ligase)): 5.59

CCCN(c1ncc2c(N)nc(N)nc2n1)C(C)c1cccc2ccccc12 (centres unmarked)
Ki [1, 8]: 2 µM | Ki ([2]; Table 5): 58 µM | Ki ([3]; Table 5): 2.7 µM | Ki ([4]; Table 5): 439 µM

CC(c1cccc2ccccc12)N(CCCN)c1ncc2c(N)nc(N)nc2n1 (centres unmarked)
Ki [1, 8]: 0.457 µM | Ki ([2]; Table 5): 46 µM | Ki ([3]; Table 5): 5.5 µM | Ki ([4]; Table 5): 81.2 µM

C[C@@H](c1cccc2ccccc12)N(C[C@@H](O)C(=O)O)c1ncc2c(N)nc(N)nc2n1 (racemic)
Ki [1, 7]: 0.611 µM | Ki ([2]; Table 4): 7.8 µM

C[C@H](c1ccc(F)c2ccccc12)N(C)c1ncc2c(N)nc(N)nc2n1 [CH3|CH3|R|F]
Ki ([1]; E. coli ligase (μM), Table 2): 0.104 µM | pKi [2, 9]: 4.57

CC(c1cccc2ccccc12)N(CCCCN)c1ncc2c(N)nc(N)nc2n1 (centres unmarked) [drawing 41]
Ki [1, 5]: 0.13 µM

CCN(c1ncc2c(N)nc(N)nc2n1)C(C)c1ccc(C)c2ccccc12 (centres unmarked) [—CH2CH3|CH3|R/S|CH3]
Ki ([1]; E. coli ligase (μM), Table 2): 0.21 µM | pKi [2, 9]: 4.41

CCN(c1ncc2c(N)nc(N)nc2n1)[C@H](C)c1ccc(C)c2ccccc12 [—CH2CH3|CH3|R|CH3]
Ki ([1]; E. coli ligase (μM), Table 2): 0.102 µM | pKi [2, 9]: 4.15

Cc1ccc([C@@H](C)N(CC2CC2)c2ncc3c(N)nc(N)nc3n2)c2ccccc12 [—CH2CH(CH2)2|CH3|R|CH3]
Ki ([1]; E. coli ligase (μM), Table 2): 0.174 µM | pKi [2, 9]: 4.21

CCC(c1cccc2ccccc12)N(C)c1ncc2c(N)nc(N)nc2n1 (centres unmarked) [—CH3|C2H5|R/S|H, N7-Methyl-N-7-(1-naphthalen-1-yl-propyl)-pyrimido[4,5-d]pyrimidine-2,4,7-triamine]
Ki ([1]; E. coli ligase (μM), Table 2): 0.452 µM | pKi [2, 9]: 5.34

Cc1ccc(C(C)N(C)c2ncc3c(N)nc(N)nc3n2)c2ccccc12 (centres unmarked) [—CH3|CH3|R/S|CH3, N7-Methyl-N7-[1-(4-methyl-naphthalen-1-yl)-ethyl]-pyrimido[4,5-d]pyrimidine-2,4,7-triamine]
Ki ([1]; E. coli ligase (μM), Table 2): 0.277 µM | pKi [2, 9]: 4.91

CC(c1ccc(Cl)c2ccccc12)N(C)c1ncc2c(N)nc(N)nc2n1 (centres unmarked) [—CH3|CH3|R/S|Cl]
Ki ([1]; E. coli ligase (μM), Table 2): 0.201 µM | pKi [2, 9]: 5.31

CC(c1cccc2ccccc12)N(C)c1ncc2c(N)nc(N)nc2n1 (centres unmarked) [—CH3|CH3|R/S|H]
Ki ([1]; E. coli ligase (μM), Table 2): 0.718 µM | pKi [2, 9]: 5.03
